Activity calls are given as the source filed them.
Columns and labels:
[1] = OVCAR-3 cell viability loss – plate reader, dry powder samples, PAX8 inhibitor project, dose response (AID 743044); format: functional, cell-based
[2] = COV362 cell viability loss – plate reader, dry powder, SA12, cytotoxicity control for PAX8 inhibitor project, dose response (AID 743144); format: functional, cell-based
[3] = viability loss in THP-1 monocytes – THP-1 cells, cytotoxicity control for Vif-APOBEC3G degradation inhibitor project, dose response (AID 1117359); format: functional; conditions: THP-1
[4] = toxicity toward immortalized ovarian surface epithelium – cell-based, plate reader, dry powder samples, cytotoxicity control for PAX8 inhibitor project, dose response (AID 743045); format: functional
[5] = PAX8-dependent cell viability loss – plate reader, dry powder, dose response (AID 743049); format: functional, cell-based
[6] = system: Vero; assay: viability of Vero cells under compound – cytotoxicity control for flavivirus capping enzyme inhibitors (AID 588742); format: functional; conditions: Chlorocebus sabaeus
[7] = system: H4; assay: Luminescence Cell-Based Dose Response HTS to Identify Activators of 5'UTR Stem-Loop Driven Prion Protein mRNA Translation in H4 Neuroglioblastoma Cells. [Related pubchem assays: 1829 (Project Summary), 1814 (Primary HTS)]; format: functional; conditions: Homo sapiens
[8] = target: Paired box protein Pax-8 (Homo sapiens, UniProt Q06710); assay: PAX8 transcriptional activity inhibition in RMG-I – RMG-I cells, luciferase, cherry-pick, dose response (AID 687027); format: functional, cell-based;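 also: luciferase reporter driven by Pax8 target thyroperoxidase promoter measured by SteadyGlo luminescence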
Paired box protein Pax-8, sequence (Q06710 whole entry): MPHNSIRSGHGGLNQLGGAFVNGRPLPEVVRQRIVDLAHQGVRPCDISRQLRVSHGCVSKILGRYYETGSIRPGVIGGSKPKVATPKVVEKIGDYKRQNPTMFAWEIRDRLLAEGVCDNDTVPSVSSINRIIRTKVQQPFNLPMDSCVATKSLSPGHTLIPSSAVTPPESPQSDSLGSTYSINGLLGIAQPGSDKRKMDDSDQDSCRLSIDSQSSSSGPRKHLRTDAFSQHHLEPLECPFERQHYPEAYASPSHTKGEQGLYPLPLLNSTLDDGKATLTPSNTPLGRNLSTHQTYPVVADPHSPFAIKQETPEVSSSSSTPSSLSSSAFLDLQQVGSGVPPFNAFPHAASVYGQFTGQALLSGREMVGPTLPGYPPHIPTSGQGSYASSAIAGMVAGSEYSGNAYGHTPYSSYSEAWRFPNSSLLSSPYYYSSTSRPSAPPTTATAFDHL

[9] = COV434 cell viability loss – plate reader, dry powder, SA7, cytotoxicity control for PAX8 inhibitor project, dose response (AID 743145); format: functional, cell-based
[10] = target: T1, Protein RecA (Mycobacterium tuberculosis, UniProt P9WHJ3); assay: Fluorescence Cell-Free Homogeneous Dose Retest to Identify Inhibitors of RecA-Intein Splicing Activity. [Related pubchem assays (depositor defined):AID2097, AID2223, AID489010, AID492950]; format: functional
T1 sequence (P9WHJ3 whole entry): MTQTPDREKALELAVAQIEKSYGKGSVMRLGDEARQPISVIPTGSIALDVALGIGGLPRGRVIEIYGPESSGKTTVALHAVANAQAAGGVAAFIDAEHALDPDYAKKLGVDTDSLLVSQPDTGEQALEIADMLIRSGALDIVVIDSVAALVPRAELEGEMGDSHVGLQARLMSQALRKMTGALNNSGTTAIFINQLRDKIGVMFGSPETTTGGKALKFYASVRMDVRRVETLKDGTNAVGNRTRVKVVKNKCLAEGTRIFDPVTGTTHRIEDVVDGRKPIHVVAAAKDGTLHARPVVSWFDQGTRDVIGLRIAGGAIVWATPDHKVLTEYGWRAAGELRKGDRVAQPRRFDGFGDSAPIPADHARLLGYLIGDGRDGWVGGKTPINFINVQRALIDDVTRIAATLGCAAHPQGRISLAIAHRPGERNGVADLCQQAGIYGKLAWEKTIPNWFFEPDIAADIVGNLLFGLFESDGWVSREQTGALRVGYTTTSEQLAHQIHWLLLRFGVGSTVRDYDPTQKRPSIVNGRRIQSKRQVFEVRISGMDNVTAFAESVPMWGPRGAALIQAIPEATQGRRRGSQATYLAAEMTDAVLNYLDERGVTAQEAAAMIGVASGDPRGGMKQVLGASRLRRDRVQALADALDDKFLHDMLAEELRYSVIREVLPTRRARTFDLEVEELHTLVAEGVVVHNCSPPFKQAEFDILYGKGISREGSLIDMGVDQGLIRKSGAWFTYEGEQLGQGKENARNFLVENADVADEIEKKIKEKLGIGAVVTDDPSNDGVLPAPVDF

[11] = Luminescence Cell-Based Dose Response HTS to Identify Activators of Luciferase Translation or Activity in H4 […] Cells. [Related pubchem assays: 1829 (Project Summary), 1814 (Primary HTS)]; format: functional
[12] = A2780 cell killing – plate reader, dry powder samples, cytotoxicity control, dose response (AID 743046); format: functional, cell-based
[13] = IGROV1 cell killing – plate reader, dry powder samples, PAX8 inhibitor project, dose response (AID 743043); format: functional, cell-based; conditions: IGROV-1
[14] = target: T2, Long-chain-fatty-acid--AMP ligase FadD28 (Mycobacterium tuberculosis, UniProt P9WQ59); assay: Fluorescence polarization aasay to screen for inhibitors that compete for the binding of FadD28 to a bisubstrate Measured in Biochemical System Using Plate Reader - 2147-01_Inhibitor_Dose_CherryPick_Activity.; format: functional, Mycobacterium tuberculosis H37Rv
T2 sequence (P9WQ59 whole entry): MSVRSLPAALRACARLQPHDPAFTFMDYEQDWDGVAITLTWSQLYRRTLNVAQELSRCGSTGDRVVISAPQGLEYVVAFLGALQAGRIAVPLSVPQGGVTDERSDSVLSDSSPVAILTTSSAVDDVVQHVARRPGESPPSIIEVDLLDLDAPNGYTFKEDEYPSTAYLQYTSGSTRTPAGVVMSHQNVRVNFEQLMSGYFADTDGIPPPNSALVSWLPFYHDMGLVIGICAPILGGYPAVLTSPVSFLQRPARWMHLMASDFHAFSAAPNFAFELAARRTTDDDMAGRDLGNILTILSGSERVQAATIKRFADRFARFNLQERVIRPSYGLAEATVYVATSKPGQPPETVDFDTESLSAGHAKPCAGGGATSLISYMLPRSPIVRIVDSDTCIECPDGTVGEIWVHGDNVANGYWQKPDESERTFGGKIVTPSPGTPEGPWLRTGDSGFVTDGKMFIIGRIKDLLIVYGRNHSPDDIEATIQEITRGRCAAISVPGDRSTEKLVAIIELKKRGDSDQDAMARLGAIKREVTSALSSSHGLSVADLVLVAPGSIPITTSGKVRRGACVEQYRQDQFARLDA

[15] = inhibitors acting on PAX2 in cells – cell-based, plate reader, dry powder samples, selectivity assay for PAX8 inhibitor project, dose response (AID 743048); format: functional;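 also: HEK293 cells carrying a WT1 promoter luciferase reporter driven by expressed Pax2; potency is for inhibition of Pax2 driven reporter signal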
[16] = OV-90 cell viability loss – plate reader, dry powder, SA8, PAX8 inhibitor project, dose response (AID 743149); format: functional, cell-based
[17] = PAX5 cellular inhibition readout – cell-based, plate reader, dry powder samples, selectivity assay for PAX8 inhibitor project, dose response (AID 743047); format: functional;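 also: HEK293 cells carrying a Pax5 driven CD19 promoter luciferase reporter; potency of inhibitors that lower reporter luminescence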
[18] = target: Genome polyprotein (dengue virus type 2, UniProt P29990); assay: flavivirus cap methylation enzyme inhibition – biochemical, confirmation dose response, primary screen (AID 588689); format: functional
Genome polyprotein, sequence (P29990 2492-3391 limits assumed): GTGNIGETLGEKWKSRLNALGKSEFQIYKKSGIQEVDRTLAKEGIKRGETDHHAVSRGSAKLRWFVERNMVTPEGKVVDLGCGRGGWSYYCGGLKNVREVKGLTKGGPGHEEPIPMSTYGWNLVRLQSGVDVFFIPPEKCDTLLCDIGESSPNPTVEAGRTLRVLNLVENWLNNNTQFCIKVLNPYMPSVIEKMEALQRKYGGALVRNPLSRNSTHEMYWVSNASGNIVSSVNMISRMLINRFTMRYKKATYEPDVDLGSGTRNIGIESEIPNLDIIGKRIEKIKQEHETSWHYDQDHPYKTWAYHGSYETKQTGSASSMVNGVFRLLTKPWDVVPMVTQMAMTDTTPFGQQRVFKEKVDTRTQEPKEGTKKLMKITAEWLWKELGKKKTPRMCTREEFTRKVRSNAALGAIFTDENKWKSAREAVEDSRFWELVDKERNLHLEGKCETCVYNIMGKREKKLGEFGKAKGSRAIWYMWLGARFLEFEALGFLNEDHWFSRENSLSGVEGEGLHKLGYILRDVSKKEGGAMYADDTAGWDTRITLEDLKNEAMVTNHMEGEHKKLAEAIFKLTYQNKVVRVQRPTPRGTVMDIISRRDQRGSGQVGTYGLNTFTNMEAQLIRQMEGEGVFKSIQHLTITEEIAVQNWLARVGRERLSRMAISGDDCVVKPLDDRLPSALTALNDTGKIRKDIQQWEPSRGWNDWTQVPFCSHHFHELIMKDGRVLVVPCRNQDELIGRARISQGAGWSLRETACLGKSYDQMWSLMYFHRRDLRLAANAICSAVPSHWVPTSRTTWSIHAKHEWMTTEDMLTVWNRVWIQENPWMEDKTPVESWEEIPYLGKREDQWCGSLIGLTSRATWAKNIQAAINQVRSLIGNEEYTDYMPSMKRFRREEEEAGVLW

[19] = OVCAR4 cell viability loss – plate reader, dry powder, SA11, cytotoxicity control for PAX8 inhibitor project, dose response (AID 743150); format: functional, cell-based; conditions: OVCAR-4
[20] = target: T3, Replicative DNA helicase DnaB (Mycobacterium tuberculosis, UniProt P9WMR3); assay: DnaB intein splicing inhibitors, dose response, biochemical, cell-free fluorescence (AID 449749); format: functional
T3 sequence (P9WMR3 whole entry): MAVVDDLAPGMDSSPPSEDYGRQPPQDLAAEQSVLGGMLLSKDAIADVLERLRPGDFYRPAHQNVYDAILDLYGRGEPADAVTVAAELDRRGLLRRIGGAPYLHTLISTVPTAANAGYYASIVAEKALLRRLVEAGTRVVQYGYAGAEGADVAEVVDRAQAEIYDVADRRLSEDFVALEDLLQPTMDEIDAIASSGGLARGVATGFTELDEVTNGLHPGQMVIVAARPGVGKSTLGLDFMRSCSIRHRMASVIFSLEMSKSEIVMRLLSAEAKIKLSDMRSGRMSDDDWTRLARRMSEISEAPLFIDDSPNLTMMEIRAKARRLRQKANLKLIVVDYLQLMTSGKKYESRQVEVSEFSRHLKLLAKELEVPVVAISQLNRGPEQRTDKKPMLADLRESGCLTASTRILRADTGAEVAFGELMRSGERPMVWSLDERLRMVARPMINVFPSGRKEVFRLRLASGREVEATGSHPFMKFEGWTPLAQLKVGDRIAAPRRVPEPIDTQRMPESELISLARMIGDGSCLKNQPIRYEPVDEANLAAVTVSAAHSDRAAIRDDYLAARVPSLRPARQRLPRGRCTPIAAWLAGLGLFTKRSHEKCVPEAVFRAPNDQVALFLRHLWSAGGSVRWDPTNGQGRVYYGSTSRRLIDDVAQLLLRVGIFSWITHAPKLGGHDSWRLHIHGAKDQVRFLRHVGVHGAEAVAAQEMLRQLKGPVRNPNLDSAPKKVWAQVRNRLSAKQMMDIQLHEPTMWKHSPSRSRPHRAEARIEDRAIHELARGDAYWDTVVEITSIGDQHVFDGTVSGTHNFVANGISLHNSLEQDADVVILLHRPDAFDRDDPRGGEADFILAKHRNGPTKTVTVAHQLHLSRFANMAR

O=C(O)CCCN1C(=O)/C(=C\C(Cl)=C\c2ccccc2)SC1=S
AC50 [1]: 10.2 µM (active) | AC50 [2]: 16 µM (active) | CC50 [3]: 6.87 µM (active) | AC50 [4]: 22.9 µM (active) | AC50 [5]: 16 µM (active) | CC50 [6]: 3.6 µM (active) | EC50 [7]: > 120 µM (not active) | AC50 [8]: 2.03 µM (active) | AC50 [9]: 27.9 µM (active) | EC50 [10]: 16.3 µM (active) | EC50 [11]: > 120 µM (not active) | AC50 [12]: 66.9 µM (active) | AC50 [13]: 9.43 µM (active) | AC50 [14]: 29.7 µM (active) | AC50 [15]: 17.8 µM (active) | AC50 [16]: 18.4 µM (active) | AC50 [17]: 13.2 µM (active) | IC50 [18]: 36.2 µM (active) | AC50 [19]: 31.8 µM (active) | AC50 [20]: 9.77 µM (active)

From ChEMBL document CHEMBL1201862, “PubChem BioAssay data set” (2004)
